# Laboratory results as given in patent US6878689B2, “Preventives or remedies for heart failure” (Kaken Pharmaceutical Co., Ltd., priority 2000, dated 2005).
# Where a SMILES comes first, the peptide text is derived from it. [ ]: non-standard residue; d: D form. d2Nal = N[C@H](Cc1ccc2ccccc2c1)C(=O)O
# Test system: papillary muscle of guinea-pig
# Assay: Myocardial contractility (developed tension) in isolated, electrically driven papillary muscle of guinea-pig
# Details: cumulative 10, 30 and 100 μM; n=5; FIG. 1
# Procedure: [Test Example 1] Myocardial Contractility Enhancing Action of Pralmorelin in the Papillary Muscle of Guinea-Pig
# The direct effect of pralmorelin on myocardial contractility was evaluated using the isolated cardiac muscle of guinea-pigs according to the standard method for evaluating myocardial contractility. • 1. Materials and Experimental Method • 1) Animal Used
# Male Hartley guinea-pigs (body weight, 301-350 g; Japan SLC) were purchased. The animals were accommodated to an environment at a temperature of 23±2° C. and a humidity of 55±15% under 12-hr light/dark cycles while they were allowed to eat and drink water ad libitum until they weighed 360-480 g. Each test substance was tested on a group of five animals. • 2) Reagents Used
# The test substances were pralmorelin dihydrochloride (KP-102), representatives of growth hormone secretagogues such as hexarelin, ghrelin and ibutamorelin methanesulfonate (the last being hereunder referred to as MK-0677) (which were prepared by the method described in JP 6-263737 A (kokai)), as well as a recombinant human growth hormone (Sumitomo Pharmaceutical) and amrinone (Sigma) which is a known therapeutic of acute heart failure. KP-102, hexarelin and MK-0677 were dissolved in distilled water. Ghrelin was dissolved in physiological saline. Amrinone was first dissolved in dimethyl sulfoxide and then diluted with physiological saline. The growth hormone was dissolved in a dedicated solubilizer (0.3 w/v % metacresol and 3.9 w/v % D-mannitol). None of the test substance solutions should be added in an amount exceeding 1 w/v %. All reagents other than the test substances were guaranteed products of Nacalai Tesque. • 3) Preparing Specimens of the Isolated Papillary Muscle
# The guinea-pigs were stunned with a blow to the back of their head; thereafter, the carotid artery was incised and the animals were exsanguinated to death. The chest was opened, the blood vessels in the upper part of the heart were cut and the heart was removed. The heart was immediately transferred into a Krebs-Henseleit (K-H) nutrient solution (NaCl, 118.0 mM; KCl, 4.7 mM; CaCl2. 2H2O, 1.0 mM; KH2PO4, 1.2 mM; MgSO4.7H2O, 1.2 mM; NaHCO3, 25.0 mM; glucose, 11.0 mM) that had been fully aerated with 95% O2-5% CO2. The heart was fixed on a rubber-lined Petri dish with needles such that its front face was seen. The ventricular wall of the upper right ventricle (toward the atrium) was excised transversely along the atrium, then excised longitudinally along the interventricular septum so that the ventricular wall was opened to expose the right ventricular papillary muscle. Subsequently, the entire surface of the left ventricle was cut open from the aorta (down) to the apex and the anterior wall of the left ventricle was opened wide, to both right and left, and fixed to expose the papillary muscle of the left ventricle. The tricupsid or mitral valve was cut off from the ventricle and the papillary muscle was cut off at the base to prepare a specimen of papillary muscle. The base of the specimen was fixed to field stimulating electrodes in an organ bath filled with 15 mL of the nutrient solution. The tendinous cord adhering to the valve was tied up with a thread and connected to an FD pickup (TB-612T, Nihon Kohden). A resting tension of 0.5 g was loaded and the papillary muscle was driven with an electric stimulator (SEN-3201, Nihon Kohden) at a frequency of 1 Hz by pulses of 20-ms duration and at a voltage intensity about 1.2 times the threshold. After an equilibration period of about 1 hr, KP-102, hexarelin and amrinone were each applied cumulatively up to amounts of 10, 30 and 100 μM. After examination of the changes in inotropic action due to the application of the test substances, 12.5 mM of CaCl2 was added and the maximum tension that was developed by each specimen was obtained. […]
structure (smiles),measurement,value
"C[C@H](NC(=O)[C@@H](Cc1ccc2ccccc2c1)NC(=O)[C@@H](C)N)C(=O)N[C@@H](Cc1c[nH]c2ccccc12)C(=O)N[C@H](Cc1ccccc1)C(=O)N[C@@H](CCCCN)C(N)=O [KP-102, D-alanyl-3-(naphthalen-2-yl)-D-alanyl-L-alanyl-L-tryptophyl-D-phenylalanyl-L-lysinamide] (H-[dA][d2Nal]AW[dF]K-NH2)",tension development (positive inotropic action) vs baseline,significant effect over the baseline value
